The target of the experiment is T1, Homoserine kinase (Escherichia coli (strain K12), UniProt P00547).
T1 sequence (P00547 whole entry): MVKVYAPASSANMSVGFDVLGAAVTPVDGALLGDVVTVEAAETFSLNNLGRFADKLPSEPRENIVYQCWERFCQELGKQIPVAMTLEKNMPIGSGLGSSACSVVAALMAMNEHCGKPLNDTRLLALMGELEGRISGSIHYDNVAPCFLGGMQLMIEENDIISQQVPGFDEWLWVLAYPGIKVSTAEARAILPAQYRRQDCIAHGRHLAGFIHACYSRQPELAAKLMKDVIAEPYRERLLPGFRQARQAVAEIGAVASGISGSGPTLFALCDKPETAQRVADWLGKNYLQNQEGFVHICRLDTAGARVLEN
In words: Enzyme Inhibition Assay. The following applies: pH 7.5; 37 °C. The source says:
The phosphorylation of L-Hse was monitored by coupling the formation of ADP with pyruvate kinase and lactate dehydrogenase (PK/LDH). The resulting oxidation of NADH was monitored at 340 nm by using a SpectraMax plate reader in a 96-well format.
`O=C1C(O)c2cc(O)c(O)cc2OC1c1ccc(O)c(O)c1` (stereo unspecified): the Ki (commonly a dissociation constant, usually derived from enzyme kinetics or from competition with a known ligand) is 27.1 µM.
Then `O=C1OC2C=CCC=C2C(=O)C1Cc1c(O)c2ccccc2oc1=O` (stereo unspecified) [Thr1 inhibitor, 4], with 0.46 µM; and `C=CC(=O)c1ccc2ccccc2c1` [Thr1 inhibitor, 1], with 32 µM; and `CC1NN(c2ccccc2)c2nc(C(F)(F)F)cc(O)c21` (stereo unspecified) [Thr1 inhibitor, 6], with 8.6 µM.
The compound `CC(=O)C(C#N)C(=O)Nc1cc(Br)ccc1Br` (stereo unspecified) gave an inhibition constant Ki of 12 µM.
Then `CC(C)Cc1nc2sc3c(c2c(=O)o1)CCCCC3` [Thr1 inhibitor, 5], with 35.8 µM.

The values are drawn from BindingDB's records for doi:10.1002/cbic.201100121 (Mcmaster University, 2011).
